Data taken from patent publication US10561661B2, “Purine derivative compounds for medical use” (MANROS THERAPEUTICS, priority 2014, dated 2020).
Entries after “also recorded” stand apart in the source; their conditions may differ. Blank lines part the entries; values can stand above or below the compound they belong to.

What was measured:
[1] = test system: ΔF508 CFTR alveolar macrophages; test: Intracellular Pseudomonas aeruginosa growth (bacterial killing) in ΔF508 CFTR alveolar macrophages, live cell microscopy; format: cell-based, mouse; details: ΔF508 CFTR expressing alveolar macrophages, 20 μM, 6 h observation
Description: (§1) FIG. 2. Inhibition of Pseudomonas aeruginosa growth in cftr^−/− and ΔF508 alveolar macrophages by M3 metabolite and derivatives. A comparison of intracellular bacterial growth in single murine alveolar macrophages was carried out using live cell microscopy. Cells were fed DS-Red expressing P. aeruginosa for 30 min (MOI<10). Cells were exposed to M3 metabolite for 20 min prior to exposure to bacteria. Adherent and non-ingested bacteria were then removed by washing and incubation with antibiotics and live alveolar macrophages were observed microscopically for approximately 6 hours.
(§2) The data are presented as means of fluorescence intensities±SEM. Control conditions summarized data obtained from: WT—2 mice, 38 cells; ΔF508—6 mice, 120 cells; cftr^−/− 4 mice, 87 cells. […] In the presence of M3 metabolite we analysed data from: ΔF508—3 mice, 57 cells; cftr^−/−1 mouse, 67 cells. […]

Pseudomonas aeruginosa = test: Growth of P. aeruginosa culture (optical density); format: cell-based; details: 37° C.
Description: FIG. 3. Absence of growth inhibition of P. aeruginosa culture by M3 metabolite and derivatives. 1/100 dilution of an overnight culture of P. aeruginosa was introduced in fresh culture medium and cultures were incubated at 37° C. with 20 μM of M3 metabolite or derivatives or 1 μM bafilomycin (negative control). Optical density (600 nm) was measured 2 h and 3.5 h after starting the cultivation, and every 30 min for 2.5 h.
Pseudomonas aeruginosa DsRed from single colony was grown in gentamicin containing TSB overnight at 37° C. with agitation at 300 RPM. Next day it was started the new culture at 1/100 dilution and certain compound of blocker were added to the tubes. We measured optical density (660 nm) of bacterial culture at every 30 minutes.

DYRK2 = DYRK2 (Homo sapiens, UniProt Q92630); test: IC50 towards inhibition of various kinases: DYRK2; format: biochemical
DYRK3 = DYRK3 (Homo sapiens, UniProt O43781); test: IC50 towards inhibition of various kinases: DYRK3; format: biochemical
[2] = test system: mouse alveolar macrophages; test: Lysosomes fusion: Rhodamine-110 processing and pHrodo-Red E. coli Bioparticles in murine alveolar macrophages; format: cell-based
Description: We added Rhodamine-110 to the cells prior the pHrodo-Red conjugated E. coli Bioparticles® providing simultaneous uptake of both probes into phagosomes. Lysosomes fusion into nascent phagosomes brings proteases including cathepsin and triggers Rhodamine conversion.
Isolated mouse alveolar macrophages (from cftr^−/− or Δ508F CFTR mice) were cultured adherent on the poly-L-lysine coated glass bottom dishes for 24-48 h. Then they were treated with 10 μM Rhodamine-110 for 20 min at room temperature in the dark with following incubation with 0.1 mg/ml pHrodo-Red conjugated E. coli Bioparticles® for 1 hour at 37° C. […] Then the cells were washed twice with PBS, fixed with 4% PFA. The images were acquired immediately after fixation on Leica SP5 2-photon laser confocal microscope with a 63× (NA1.4) oil objective.
Isolated mouse macrophages were plated on 96-well plate with a density of 3-6,000 cells (20-60 μm diameter) per well, incubated in complete DMEM (10% FBS, 1% penicillin-streptomycin) at 37° C. under 5% CO2 pressure for 24-48 h. The cells were loaded with 5 μM Rhodamine-110 for 20 min at room temperature in the dark, fed with E. coli Bioparticles® conjugated to pHrodo-Red for 1 h at 37° C.

[3] = test system: human alveolar macrophages; test: Phagosomal acidification, pHrodo Red BioParticles, plate reader; format: cell-based; details: 10 μM, read over 3 h
Description: (1C) Comparative effect of various compounds on phagosomal pH in human alveolar macrophages. Data summary from 3-10 patients for each compound tested at 10 μM. Data was obtained in triplicate for each patient and averaged for all patients with error bars indicating the SEM. Data were normalized to fluorescence changes observed in untreated control cells for each patient before averaging.
Broncho-alveolar lavage from humans was performed on consenting adults following a protocol approved by The University of Chicago Institutional Review Board. The patients included men and women, smokers and non-smokers, undergoing bronchoscopy for cancer biopsies prior to clinical treatment. […]
In brief, broncho-alveolar lavage fluid was strained through a 70 μm sterile cell strainer into a 50 ml conical tube centrifuge tube with a maximum broncho-alveolar lavage volume of 40 ml and a minimum volume of 10 ml followed by centrifugation at 1000×g for 5 min at 4° C. […] Cells were counted on Countess® (Invitrogen) with a distribution cut-off of 20-60 μm and cell viability determined by trypan blue exclusion. […]
After 24 h incubation cells were exposed to pHrodo Red BioParticles® (Life Technologies). Acidification was measured on 96-well plate format with 560 and 580 nm excitation and emission wavelengths at 37° C. in a Synergy MX, BioTek® plate reader. […]

[4] = test system: cftr−/− alveolar macrophages; test: Intracellular Pseudomonas aeruginosa growth (bacterial killing) in cftr−/− alveolar macrophages, live cell microscopy; format: cell-based, mouse; details: 20 μM, 6 h observation
Description: as §1, §2

CLK2 = CLK2 (Homo sapiens, UniProt P49760); test: IC50 towards inhibition of various kinases: CLK2; format: biochemical
CDK9/cyclin T = CDK9/cyclin T (Homo sapiens, UniProt P50750); test: IC50 towards inhibition of various kinases: CDK9/cyclin T; format: biochemical
DYRK1A = DYRK1A (Homo sapiens, UniProt Q13627); test: IC50 towards inhibition of various kinases: DYRK1A; format: biochemical
GSK-3α/β = test: IC50 towards inhibition of various kinases: GSK-3α/β; format: biochemical
CK1δ/ε = test: IC50 towards inhibition of various kinases: CK1δ/ε; format: biochemical
kinase = details: cited from earlier work
PfGSK-3 = PfGSK-3 (Plasmodium falciparum, UniProt O77344); test: biochemical; details: read-out: IC50 value towards inhibition of PfGSK-3
CLK3 = CLK3 (Homo sapiens, UniProt P49761); test: IC50 towards inhibition of various kinases: CLK3; format: biochemical
DYRK1B = DYRK1B (Homo sapiens, UniProt Q9Y463); test: IC50 towards inhibition of various kinases: DYRK1B; format: biochemical
CLK4 = CLK4 (Homo sapiens, UniProt Q9HAZ1); test: IC50 towards inhibition of various kinases: CLK4; format: biochemical
CLK1 = CLK1 (Homo sapiens, UniProt P49759); test: IC50 towards inhibition of various kinases: CLK1; format: biochemical
CK2 = CK2 (Homo sapiens, UniProt P68400); test: IC50 towards inhibition of various kinases: CK2; format: biochemical
Pim1 = Pim1 (Homo sapiens, UniProt P11309); test: IC50 towards inhibition of various kinases: Pim1; format: biochemical
CDK1/cyclin B = test: IC50 towards inhibition of various kinases: CDK1/cyclin B; format: biochemical

Sequence of DYRK3 (O43781 whole entry, species assumed, the tested form may be a part): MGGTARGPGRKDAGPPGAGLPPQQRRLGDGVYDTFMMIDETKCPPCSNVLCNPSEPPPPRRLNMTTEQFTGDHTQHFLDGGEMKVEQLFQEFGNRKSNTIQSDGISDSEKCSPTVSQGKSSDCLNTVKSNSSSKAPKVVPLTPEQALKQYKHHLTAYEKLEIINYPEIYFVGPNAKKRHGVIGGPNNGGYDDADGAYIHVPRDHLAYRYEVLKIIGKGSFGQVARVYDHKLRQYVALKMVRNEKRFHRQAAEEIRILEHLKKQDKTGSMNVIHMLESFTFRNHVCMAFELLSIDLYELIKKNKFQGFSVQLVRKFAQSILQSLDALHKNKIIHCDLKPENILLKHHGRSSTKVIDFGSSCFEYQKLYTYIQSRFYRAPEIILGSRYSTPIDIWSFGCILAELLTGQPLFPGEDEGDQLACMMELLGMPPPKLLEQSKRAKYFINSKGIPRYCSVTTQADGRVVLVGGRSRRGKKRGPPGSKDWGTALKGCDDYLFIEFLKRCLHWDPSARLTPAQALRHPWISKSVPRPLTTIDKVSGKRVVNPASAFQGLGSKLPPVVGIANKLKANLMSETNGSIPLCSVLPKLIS
Sequence of DYRK2 (Q92630 whole entry, species assumed): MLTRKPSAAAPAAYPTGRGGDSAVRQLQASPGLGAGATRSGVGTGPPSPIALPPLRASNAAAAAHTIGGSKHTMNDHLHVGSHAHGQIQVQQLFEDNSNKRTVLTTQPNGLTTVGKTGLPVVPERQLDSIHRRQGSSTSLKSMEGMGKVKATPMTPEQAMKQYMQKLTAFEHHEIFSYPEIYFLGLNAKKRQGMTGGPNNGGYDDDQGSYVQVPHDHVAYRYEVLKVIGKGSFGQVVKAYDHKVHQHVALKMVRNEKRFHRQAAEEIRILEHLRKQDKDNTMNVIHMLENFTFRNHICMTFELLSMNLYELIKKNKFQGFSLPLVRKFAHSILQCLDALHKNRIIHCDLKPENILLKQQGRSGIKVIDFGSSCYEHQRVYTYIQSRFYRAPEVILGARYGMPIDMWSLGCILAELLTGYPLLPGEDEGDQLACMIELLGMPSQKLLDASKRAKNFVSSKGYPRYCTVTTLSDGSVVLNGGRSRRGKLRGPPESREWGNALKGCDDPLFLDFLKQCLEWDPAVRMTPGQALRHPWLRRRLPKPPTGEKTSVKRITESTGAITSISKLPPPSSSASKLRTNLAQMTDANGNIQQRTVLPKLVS
Sequence of CK2 (P68400 whole entry): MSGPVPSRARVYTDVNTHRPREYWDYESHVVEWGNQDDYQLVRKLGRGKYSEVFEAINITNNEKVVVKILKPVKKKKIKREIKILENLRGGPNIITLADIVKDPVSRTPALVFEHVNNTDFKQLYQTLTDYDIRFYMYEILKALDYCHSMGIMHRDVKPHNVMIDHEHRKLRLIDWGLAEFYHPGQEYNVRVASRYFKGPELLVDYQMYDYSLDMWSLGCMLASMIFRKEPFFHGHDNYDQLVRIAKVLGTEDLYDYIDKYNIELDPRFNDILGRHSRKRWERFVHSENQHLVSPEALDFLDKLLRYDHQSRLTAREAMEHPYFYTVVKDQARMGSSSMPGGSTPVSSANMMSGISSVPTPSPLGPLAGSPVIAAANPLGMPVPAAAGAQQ
Sequence of CLK2 (P49760 whole entry, species assumed): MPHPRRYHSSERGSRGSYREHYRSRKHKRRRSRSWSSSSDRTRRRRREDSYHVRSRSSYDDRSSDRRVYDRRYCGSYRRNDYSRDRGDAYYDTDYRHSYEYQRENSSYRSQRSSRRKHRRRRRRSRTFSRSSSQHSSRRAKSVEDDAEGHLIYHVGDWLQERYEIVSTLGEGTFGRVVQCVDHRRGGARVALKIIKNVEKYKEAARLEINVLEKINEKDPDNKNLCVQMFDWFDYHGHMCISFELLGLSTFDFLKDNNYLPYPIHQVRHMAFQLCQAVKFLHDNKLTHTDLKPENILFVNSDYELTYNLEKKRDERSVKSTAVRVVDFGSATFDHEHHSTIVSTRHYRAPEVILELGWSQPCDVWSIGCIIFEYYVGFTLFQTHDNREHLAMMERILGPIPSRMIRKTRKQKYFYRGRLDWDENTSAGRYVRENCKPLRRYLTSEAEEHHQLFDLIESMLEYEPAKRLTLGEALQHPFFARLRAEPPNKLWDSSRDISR
Sequence of Pim1 (P11309 whole entry, species assumed): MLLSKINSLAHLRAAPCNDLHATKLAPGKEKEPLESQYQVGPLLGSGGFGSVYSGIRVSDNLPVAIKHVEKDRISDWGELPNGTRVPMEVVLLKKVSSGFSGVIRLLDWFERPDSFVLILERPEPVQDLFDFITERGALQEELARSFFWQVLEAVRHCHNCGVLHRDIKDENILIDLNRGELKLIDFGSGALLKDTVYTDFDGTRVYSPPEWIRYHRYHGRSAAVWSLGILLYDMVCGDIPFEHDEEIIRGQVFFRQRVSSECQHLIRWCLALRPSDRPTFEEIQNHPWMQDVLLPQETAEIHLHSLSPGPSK
Sequence of PfGSK-3 (O77344 1-440): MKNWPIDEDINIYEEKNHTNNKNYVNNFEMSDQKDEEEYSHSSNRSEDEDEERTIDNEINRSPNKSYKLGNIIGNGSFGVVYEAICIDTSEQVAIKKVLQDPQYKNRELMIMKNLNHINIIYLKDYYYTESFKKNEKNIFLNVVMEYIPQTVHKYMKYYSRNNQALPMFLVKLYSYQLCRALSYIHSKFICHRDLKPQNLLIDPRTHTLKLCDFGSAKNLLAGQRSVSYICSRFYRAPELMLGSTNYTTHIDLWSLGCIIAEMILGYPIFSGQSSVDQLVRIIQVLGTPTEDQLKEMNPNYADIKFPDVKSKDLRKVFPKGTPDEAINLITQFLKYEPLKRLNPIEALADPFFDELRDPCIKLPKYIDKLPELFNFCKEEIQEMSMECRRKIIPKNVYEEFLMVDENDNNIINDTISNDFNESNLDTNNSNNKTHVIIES
Sequence of CDK9/cyclin T (P50750 whole entry, species assumed): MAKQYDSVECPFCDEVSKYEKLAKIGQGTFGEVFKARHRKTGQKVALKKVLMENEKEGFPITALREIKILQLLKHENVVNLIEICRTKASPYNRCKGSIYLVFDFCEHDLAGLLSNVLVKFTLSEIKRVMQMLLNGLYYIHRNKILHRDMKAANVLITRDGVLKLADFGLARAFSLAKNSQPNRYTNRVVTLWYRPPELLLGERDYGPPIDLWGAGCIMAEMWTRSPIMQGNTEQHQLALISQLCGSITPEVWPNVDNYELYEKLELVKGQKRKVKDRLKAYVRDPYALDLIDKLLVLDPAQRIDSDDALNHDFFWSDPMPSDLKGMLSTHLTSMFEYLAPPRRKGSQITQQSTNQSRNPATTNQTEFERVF
Sequence of CDK9/cyclin T (O60563 whole entry partner, species assumed): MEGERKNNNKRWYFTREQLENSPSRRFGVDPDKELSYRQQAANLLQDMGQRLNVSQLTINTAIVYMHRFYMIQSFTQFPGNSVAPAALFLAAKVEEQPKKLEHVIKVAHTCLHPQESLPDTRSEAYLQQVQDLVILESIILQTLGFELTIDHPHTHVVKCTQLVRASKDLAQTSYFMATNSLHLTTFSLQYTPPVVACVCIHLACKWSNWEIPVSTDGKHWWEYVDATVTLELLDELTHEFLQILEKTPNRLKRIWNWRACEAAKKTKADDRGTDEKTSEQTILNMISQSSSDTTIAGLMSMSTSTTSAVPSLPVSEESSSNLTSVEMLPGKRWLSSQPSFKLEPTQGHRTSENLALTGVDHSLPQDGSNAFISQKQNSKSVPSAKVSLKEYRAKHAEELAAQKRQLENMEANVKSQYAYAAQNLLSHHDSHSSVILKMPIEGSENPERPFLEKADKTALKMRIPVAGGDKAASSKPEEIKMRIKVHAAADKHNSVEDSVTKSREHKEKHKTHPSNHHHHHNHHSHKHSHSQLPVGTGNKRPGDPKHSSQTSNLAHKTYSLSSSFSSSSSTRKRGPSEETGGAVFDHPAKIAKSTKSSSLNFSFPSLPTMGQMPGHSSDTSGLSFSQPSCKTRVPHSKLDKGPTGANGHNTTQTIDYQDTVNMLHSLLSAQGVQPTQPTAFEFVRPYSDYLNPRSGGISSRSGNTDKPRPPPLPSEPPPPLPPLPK
Sequence of DYRK1B (Q9Y463 whole entry, species assumed): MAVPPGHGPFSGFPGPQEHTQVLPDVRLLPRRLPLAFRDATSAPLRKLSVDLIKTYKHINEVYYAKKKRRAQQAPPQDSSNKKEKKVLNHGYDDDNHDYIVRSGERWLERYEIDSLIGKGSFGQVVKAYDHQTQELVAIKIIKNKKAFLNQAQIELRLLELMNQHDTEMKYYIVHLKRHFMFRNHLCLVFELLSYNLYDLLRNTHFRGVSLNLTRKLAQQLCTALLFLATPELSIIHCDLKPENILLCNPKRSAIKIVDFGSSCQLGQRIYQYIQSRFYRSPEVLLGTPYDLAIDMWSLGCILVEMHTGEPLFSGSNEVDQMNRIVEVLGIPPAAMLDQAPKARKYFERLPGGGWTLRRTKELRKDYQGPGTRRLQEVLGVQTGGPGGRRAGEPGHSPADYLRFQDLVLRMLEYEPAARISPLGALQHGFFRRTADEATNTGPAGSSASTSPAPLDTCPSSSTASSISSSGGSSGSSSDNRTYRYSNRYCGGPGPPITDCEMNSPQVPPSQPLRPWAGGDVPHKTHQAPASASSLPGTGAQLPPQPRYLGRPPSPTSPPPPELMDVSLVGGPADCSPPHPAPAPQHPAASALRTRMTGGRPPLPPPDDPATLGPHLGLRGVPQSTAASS

Compound: CC[C@H](CO)Nc1nc(NCc2ccccc2)c2ncn(C(C)C)c2n1 [(R)-roscovitine, 2-(R)-(1-ethyl-2-hydroxyethylamino)-6-benzylamino-9-isopropylpurine, reference compound]
- rescue of bacterial killing (intracellular P. aeruginosa growth) [1]: significantly rescues bacterial killing
- prevention of bacterial growth in culture (optical density) (Pseudomonas aeruginosa; 20 μM): unable to prevent bacterial growth
- IC50 (DYRK2): 2.3 µM
- IC50 (DYRK3): 59 µM
- fluorescence from pHrodo-Red conjugated E. coli Bioparticles phagocytosis ([2]; FIG. 4A, alveolar macrophages, compared to control): decreased
- fluorescence resulting from rhodamine-110 processing by lysosomal proteases ([2]; FIG. 4A, confocal microscopy, compared to control without compound): increased
- phagosomal acidification over phagosomal pH observed in untreated cells [3]: significantly enhance acidification
- rescue of bacterial killing (intracellular P. aeruginosa growth) [4]: significantly rescues bacterial killing

- melting point: 120 to 130 °C
Compound: CC(C)n1cnc2c(NCc3ccccc3)nc(N[C@@H](CO)C(=O)O)nc21 [Compound 6, (2S)-2-[[6-(benzylamino)-9-isopropyl-purin-2-yl]amino]-3-hydroxy-propanoic acid]

Compound: CC[C@@H](Nc1nc(NCc2ccccc2)c2ncn(C(C)C)c2n1)C(=O)O [Metabolite M3, (2R)-2-[[9-isopropyl-6-(phenylmethylamino)purin-2-yl]amino]butanoic acid]
- rescue of bacterial killing (intracellular P. aeruginosa growth) [1]: at least as efficient as with (R)-roscovitine
- prevention of bacterial growth in culture (optical density) (Pseudomonas aeruginosa; 20 μM): unable to prevent bacterial growth
- IC50 (CLK2): 14 µM
- IC50 (DYRK2): 23 µM
- IC50 (DYRK3): > 100 µM
- IC50 (CDK9/cyclin T): > 10 µM
- IC50 (DYRK1A): 19 µM
- IC50 (GSK-3α/β): > 100 µM
- lysosomes fusion / rhodamine-110 processing by lysosomal proteases ([2]; FIG. 4B, 10 μM, mouse alveolar macrophages, versus control cells, listed as M3 metabolite): increased; also recorded: enhanced lysosomes fusion
- IC50 (CK1δ/ε): 21 µM
- kinase inhibiting properties (kinase): does not exhibit kinase inhibiting properties
- IC50 (PfGSK-3): > 100 µM
- IC50 (CLK3): 52 µM
- IC50 (DYRK1B): 22 µM
- IC50 (CLK4): 19 µM
- IC50 (CLK1): 18 µM
- phagosomal acidification over phagosomal pH observed in untreated cells [3]: significantly enhance acidification
- IC50 (CK2): > 100 µM
- IC50 (Pim1): > 100 µM
- rescue of bacterial killing (intracellular P. aeruginosa growth) [4]: at least as efficient as with (R)-roscovitine
- IC50 (CDK1/cyclin B): 11 µM

Compound: CO/C1=C\C(C)=C\[C@@H](C)[C@@H](O)[C@@H](C)C/C(C)=C/C=C/[C@H](OC)[C@@H]([C@@H](C)[C@@H](O)[C@H](C)[C@@]2(O)C[C@@H](O)[C@H](C)[C@@H](C(C)C)O2)OC1=O [bafilomycin]
- prevention of bacterial growth in culture (optical density) (Pseudomonas aeruginosa; 1 μM): unable to prevent bacterial growth
